Measured values taken from patent publication US20230159489A1, “PHD INHIBITOR COMPOUNDS, COMPOSITIONS, AND USE” (Akebia Therapeutics, Inc., priority 2020, published 2023).

Columns and labels:
[1] = target: T1, full-length human PHD1 (Homo sapiens, UniProt Q96KS0); assay: TR-FRET assay, enzymatic IC50 against PHD1; format: biochemical; on IC50: 15 nM PHD1
T1 construct: FLAG (N); purchased Active Motif 81064; host or cells: baculovirus expression system
Text: PHD1 was expressed in a baculovirus expression system as the full-length protein (NCBI accession number NP_542770.2) with an N-terminal FLAG tag (molecular weight 44.9 kDa).

[2] = target: full-length human PHD2 (Homo sapiens, UniProt Q9GZT9); assay: TR-FRET assay, enzymatic IC50 against PHD2
Chain of full-length human PHD2 (Q9GZT9 whole entry): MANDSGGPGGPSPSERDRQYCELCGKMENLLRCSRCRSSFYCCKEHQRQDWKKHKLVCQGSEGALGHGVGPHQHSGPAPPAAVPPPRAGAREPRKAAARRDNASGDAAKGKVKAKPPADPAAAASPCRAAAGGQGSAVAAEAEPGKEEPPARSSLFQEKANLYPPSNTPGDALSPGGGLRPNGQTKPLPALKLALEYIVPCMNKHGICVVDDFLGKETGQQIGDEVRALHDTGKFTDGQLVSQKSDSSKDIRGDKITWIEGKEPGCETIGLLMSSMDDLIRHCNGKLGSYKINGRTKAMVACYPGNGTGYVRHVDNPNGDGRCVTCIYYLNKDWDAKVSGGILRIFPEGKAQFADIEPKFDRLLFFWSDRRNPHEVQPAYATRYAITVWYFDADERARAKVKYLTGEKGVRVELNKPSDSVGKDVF

T1 sequence (Q96KS0 whole entry): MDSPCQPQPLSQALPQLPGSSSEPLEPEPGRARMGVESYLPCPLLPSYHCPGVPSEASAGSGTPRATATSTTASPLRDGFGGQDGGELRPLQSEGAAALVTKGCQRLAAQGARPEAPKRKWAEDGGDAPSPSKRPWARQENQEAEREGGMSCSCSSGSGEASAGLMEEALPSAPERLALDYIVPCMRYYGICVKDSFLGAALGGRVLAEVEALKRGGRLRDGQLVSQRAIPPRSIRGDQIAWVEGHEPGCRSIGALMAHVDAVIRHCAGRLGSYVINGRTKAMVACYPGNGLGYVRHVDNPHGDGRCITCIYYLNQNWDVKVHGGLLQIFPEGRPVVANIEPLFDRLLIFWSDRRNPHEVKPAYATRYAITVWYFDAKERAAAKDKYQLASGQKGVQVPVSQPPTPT

| Structure (SMILES) | IC50 [2] [nM] | IC50 [1] [nM] | Km ([1]; read-out: Km of 2-OG for PHD1) [µM] |
| --- | --- | --- | --- |
| O=C(O)CCC(=O)C(=O)O [Compound 2-OG, 2-oxoglutarate, reference compound] |  |  | 0.0127 |
| Cc1cc(-c2c(C)nn(-c3ccc(S(C)(=O)=O)cn3)c2O)ccc1O [Compound 48, 4-(4-hydroxy-3-methylphenyl)-3-methyl-1-(5-(methylsulfonyl)pyridin-2-yl)-1H-pyrazol-5-ol] | 100 to 1000 | 100 to 1000 |  |
| COc1ccc(-c2c(C)nn(-c3ccc(S(C)(=O)=O)cn3)c2O)cc1C [Compound 49, 4-(4-methoxy-3-methylphenyl)-3-methyl-1-(5-(methylsulfonyl)pyridin-2-yl)-1H-pyrazol-5-ol] | 100 to 1000 | 100 to 1000 |  |
| Cc1nn(-c2ccc(S(=N)(=O)C3CC3)cn2)c(O)c1-c1ccc(C#N)cc1 (centres unmarked) [Compound 33, 4-(1-(5-(cyclopropanesulfonimidoyl)pyridin-2-yl)-5-hydroxy-3-methyl-1H-pyrazol-4-yl)benzonitrile] | < 100 | < 100 |  |
| CNS(=O)(=O)Nc1ccc(-n2nc(C)c(-c3ccc(C#N)cc3)c2O)nc1 [Compound 51, N-(6-(4-(4-cyanophenyl)-5-hydroxy-3-methyl-1H-pyrazol-1-yl)pyridin-3-yl)-N′-methylsulfamide] | < 100 | < 100 |  |
| Cc1nn(-c2ccc(S(C)(=N)=O)cn2)c(O)c1-c1ccc(Cl)cc1 (centres unmarked) [Compound 18, (6-(4-(4-chlorophenyl)-5-hydroxy-3-methyl-1H-pyrazol-1-yl)pyridin-3-yl)(imino)(methyl)-λ^6-sulfanone] | < 100 | < 100 |  |
| Cc1nn(-c2ccc([S@@+](C)[O-])cn2)c(O)c1-c1ccc(C#N)cc1 [Compound 23, (R)-4-(5-hydroxy-3-methyl-1-(5-(methylsulfinyl)pyridin-2-yl)-1H-pyrazol-4-yl)benzonitrile] | < 100 | < 100 |  |
| Cc1nn(-c2ccc(-c3nc(-c4ccccc4)cs3)cn2)c(O)c1-c1ccc(C#N)cc1 [Compound 62, 4-(5-Hydroxy-3-methyl-1-(5-(4-phenylthiazol-2-yl)pyridin-2-yl)-1H-pyrazol-4-yl)benzonitrile] | > 10000 | 100 to 1000 |  |
| Cc1nn(-c2ccc(-c3nn[nH]n3)cn2)c(O)c1-c1ccc(C#N)cc1 [Compound 50, 4-(1-(5-(2H-tetrazol-5-yl)pyridin-2-yl)-5-hydroxy-3-methyl-1H-pyrazol-4-yl)benzonitrile] | < 100 | < 100 |  |
| Cc1nn(-c2ccc(S(=N)(=O)C(C)C)cn2)c(O)c1-c1ccc(C#N)cc1 (centres unmarked) [Compound 19, 4-(5-hydroxy-3-methyl-1-(5-(propan-2-ylsulfonimidoyl)pyridin-2-yl)-1H-pyrazol-4-yl)benzonitrile] | < 100 | < 100 |  |
| CC(=O)NS(=O)(=O)c1ccc(-n2nc(C)c(-c3ccc(Cl)cc3)c2O)nc1 [Compound 30, N-((6-(4-(4-chlorophenyl)-5-hydroxy-3-methyl-1H-pyrazol-1-yl)pyridin-3-yl)sulfonyl)acetamide] | < 100 | < 100 |  |
| Cc1nn(-c2ccc(NC(=O)N3CCOCC3)cn2)c(O)c1-c1ccc(C#N)cc1 [Compound 31, N-(6-(4-(4-cyanophenyl)-5-hydroxy-3-methyl-1H-pyrazol-1-yl)pyridin-3-yl)morpholine-4-carboxamide] | 100 to 1000 | < 100 |  |
| Cc1cc(-n2nc(C)c(-c3ccc(C#N)cc3)c2O)ncc1S(N)(=O)=O [Compound 38, 6-(4-(4-cyanophenyl)-5-hydroxy-3-methyl-1H-pyrazol-1-yl)-4-methylpyridine-3-sulfonamide] | < 100 | < 100 |  |
| Cc1nn(-c2ccc(CC(=O)O)cn2)c(O)c1-c1ccc(C#N)cc1 [Compound 47, 2-(6-(4-(4-cyanophenyl)-5-hydroxy-3-methyl-1H-pyrazol-1-yl)pyridin-3-yl)acetic acid] | < 100 | < 100 |  |
| Cc1nn(-c2ccc([S@@](C)(=N)=O)cn2)c(O)c1-c1ccc(C#N)cc1 [Compound 16, (S)-4-(5-hydroxy-3-methyl-1-(5-(S-methylsulfonimidoyl)pyridin-2-yl)-1H-pyrazol-4-yl)benzonitrile] | < 100 | < 100 |  |
| Cc1nn(-c2ccc(S(=N)(=O)N(C)C)cn2)c(O)c1-c1ccc(C#N)cc1 (centres unmarked) [Compound 25, 6-(4-(4-cyanophenyl)-5-hydroxy-3-methyl-1H-pyrazol-1-yl)-N,N-dimethylpyridine-3-sulfonimidamide] | < 100 | < 100 |  |
| Cc1cc(-n2nc(C)c(-c3ccc(C#N)cc3)c2O)ncc1S(C)(=O)=O [Compound 46, 4-(5-hydroxy-3-methyl-1-(4-methyl-5-(methylsulfonyl)pyridin-2-yl)-1H-pyrazol-4-yl)benzonitrile] | < 100 | < 100 |  |
| CCS(=N)(=O)c1ccc(-n2nc(C)c(-c3ccc(C#N)cc3)c2O)nc1 (centres unmarked) [Compound 21, 4-(5-hydroxy-3-methyl-1-(5-(S-ethylsulfonimidoyl)pyridin-2-yl)-1H-pyrazol-4-yl)benzonitrile] | < 100 | < 100 |  |
| Cc1nn(-c2ccc(S(=N)(N)=O)cn2)c(O)c1-c1ccc(C#N)cc1 (centres unmarked) [Compound 24, 6-(4-(4-cyanophenyl)-5-hydroxy-3-methyl-TH-pyrazol-1-yl)pyridine-3-sulfonimidamide] | < 100 | < 100 |  |
| Cc1nn(-c2ccc([S@@](=N)(=O)C3CC3)cn2)c(O)c1-c1ccc(Cl)cc1 [Compound 65, (S)-(6-(4-(4-chlorophenyl)-5-hydroxy-3-methyl-1H-pyrazol-1-yl)pyridin-3-yl)(cyclopropyl)(imino)-λ^6-sulfanone] | < 100 | < 100 |  |
| Cc1nn(-c2ccc(-c3nccs3)cn2)c(O)c1-c1ccc(C#N)cc1 [Compound 60, 4-(5-Hydroxy-3-methyl-1-(5-(thiazol-2-yl)pyridin-2-yl)-1H-pyrazol-4-yl)benzonitrile] | 100 to 1000 | < 100 |  |

More lines, main results first:

| IC50 [2] [nM] | IC50 [1] [nM] | Structure (SMILES) | Km ([1]; read-out: Km of 2-OG for PHD1) [µM] |
| --- | --- | --- | --- |
| < 100 | < 100 | Cc1nn(-c2ccc([S@+](C)[O-])cn2)c(O)c1-c1ccc(C#N)cc1 [Compound 22, (S)-4-(5-hydroxy-3-methyl-1-(5-(methylsulfinyl)pyridin-2-yl)-1H-pyrazol-4-yl)benzonitrile] |  |
| < 100 | < 100 | Cc1nn(-c2ccc(NS(=O)(=O)N(C)C)cn2)c(O)c1-c1ccc(C#N)cc1 [Compound 52, N-(6-(4-(4-cyanophenyl)-5-hydroxy-3-methyl-1H-pyrazol-1-yl)pyridin-3-yl)-N′-dimethylsulfamide] |  |
| < 100 | < 100 | Cc1nn(-c2ccc(-c3ncco3)cn2)c(O)c1-c1ccc(C#N)cc1 [Compound 59, 4-(5-Hydroxy-3-methyl-1-(5-(oxazol-2-yl)pyridin-2-yl)-1H-pyrazol-4-yl)benzonitrile] |  |
| < 100 | < 100 | Cc1cc(-n2nc(C)c(-c3ccc(C#N)cc3)c2O)ncc1[S@](=N)(=O)C1CC1 [Compound 69, (R)-4-(1-(5-(cyclopropanesulfonimidoyl)-4-methylpyridin-2-yl)-5-hydroxy-3-methyl-1H-pyrazol-4-yl)benzonitrile] |  |
| < 100 | < 100 | Cc1nn(-c2ccc([S@](=N)(=O)C(C)C)cn2)c(O)c1-c1ccc(C#N)cc1 [Compound 42, (R)-4-(5-hydroxy-3-methyl-1-(5-(S-isopropylsulfonimidoyl)pyridin-2-yl)-1H-pyrazol-4-yl)benzonitrile] |  |
| 100 to 1000 | < 100 | Cc1nn(-c2ccc(-n3cc(-c4ccccc4)cn3)cn2)c(O)c1-c1ccc(C#N)cc1 [Compound 64, 4-(5-Hydroxy-3-methyl-1-(5-(4-phenyl-1H-pyrazol-1-yl)pyridin-2-yl)-1H-pyrazol-4-yl)benzonitrile] |  |
|  | < 100 | Cc1cc(-n2nc(C)c(-c3ccc(C#N)cc3)c2O)ncc1S(=O)(=O)N1CCCC1 [Compound 72, 4-(5-hydroxy-3-methyl-1-(4-methyl-5-(pyrrolidin-1-ylsulfonyl)pyridin-2-yl)-1H-pyrazol-4-yl)benzonitrile] |  |
| < 100 | < 100 | Cc1nn(-c2ccc(C3CN(S(C)(=O)=O)C3)cn2)c(O)c1-c1ccc(C#N)cc1 [Compound 43, 4-(5-hydroxy-3-methyl-1-(5-(1-(methylsulfonyl)azetidin-3-yl)pyridin-2-yl)-1H-pyrazol-4-yl)benzonitrile] |  |
|  | < 100 | Cc1nn(-c2ccc(-c3cn(C)nn3)cn2)c(O)c1-c1ccc(C#N)cc1 [Compound 54, 4-(5-hydroxy-3-methyl-1-(5-(1-methyl-1H-1,2,3-triazol-4-yl)pyridin-2-yl)-1H-pyrazol-4-yl)benzonitrile] |  |
| < 100 | < 100 | Cc1cc(-n2nc(C)c(-c3ccc(C#N)cc3)c2O)ncc1N1CCCC1=O [Compound 37, 4-(5-hydroxy-3-methyl-1-(4-methyl-5-(2-oxopyrrolidin-1-yl)pyridin-2-yl)-1H-pyrazol-4-yl)benzonitrile] |  |
| 100 to 1000 | < 100 | Cc1cc(-n2nc(C)c(-c3ccc(C#N)cc3)c2O)ncc1S(=O)(=O)Nc1ccccc1 [Compound 70, 6-(4-(4-cyanophenyl)-5-hydroxy-3-methyl-1H-pyrazol-1-yl)-4-methyl-N-phenylpyridine-3-sulfonamide] |  |
| < 100 | < 100 | Cc1nn(-c2ccc(P(C)(C)=O)cn2)c(O)c1-c1ccc(C#N)cc1 [Compound 14, 4-(1-(5-(dimethylphosphoryl)pyridin-2-yl)-5-hydroxy-3-methyl-1H-pyrazol-4-yl)benzonitrile] |  |
| < 100 | < 100 | Cc1cc(-n2nc(C)c(-c3ccc(C#N)cc3)c2O)ncc1S(=O)(=O)NC1CC1 [Compound 71, 6-(4-(4-cyanophenyl)-5-hydroxy-3-methyl-1H-pyrazol-1-yl)-N-cyclopropyl-4-methylpyridine-3-sulfonamide] |  |
